Results taken from patent US8530427B2, “Methods for modulating resistance to apoptosis using KLK6” (Mayo Foundation for Medical Education and Research, priority 2010, dated 2013).

Experiments:
[1] = test system: Oli Neu oligodendrocyte cell line; test: Oli Neu oligodendrocyte cell death, PI flow cytometry; assay type: cell-based, murine; conditions: 0.5 μM; 18 hour exposure
Excerpt: KLK6 polypeptides promoted the survival of murine oligodendrocytes in a dose dependent fashion. […] Cell death was detected by PI labeling and quantitatively analyzed by flow cytometry.

[2] = test system: U251 human glioblastoma cell line; test: U251 glioblastoma cell death / apoptosis by flow cytometry; assay type: cell-based; conditions: 1 μM
Protocol: The percent of cells labeled with propidium iodide (PI) after 24 hour exposure to staurosporine (1 μM) shown in histogram (FIG. 15A) was quantified by flow cytometry (FIG. 15B) and is taken as a measure of cell death. All samples were treated and analyzed in triplicate.
Levels of live (Annexin V− and Propidium iodide− (PI−)), early apoptotic (Annexin V+ and PI−), or dead (Annexin V+ and PI+) cells were determined by flow cytometry after a 24 hour period of exposure to 1 μM staurosporine (FIG. 16B) or staurosporine in the presence of 10 μg/mL KLK6 (FIG. 16C).
Dead cells were detected by labeling with 7-AAD. […] All expression data were normalized to the constitutively expressed gene GAPDH (*P<0.05, Students t-test).
KLK6 polypeptides promoted the survival of human glioma cells. […] Cell death was measured by flow cytometric detection of propidium iodide labeling.

murine splenocytes [3] = test: Murine splenocyte/lymphocyte cell death, PI labeling by flow cytometry; assay type: cell-based; conditions: resting conditions; 1 or 10 μg/mL at plating; 24 and 72 hours
Excerpt: The effect of KLK6 polypeptides on immune cell survival was examined using whole splenocyte populations derived from C57BL6/J or PAR1 deficient mice or using the Jurkat T-leukemic cell line (clone E6-1, TIB-152 American Type Culture Collection). Eight to 12 week old C57 mice were obtained from Jackson Laboratories. Mice deficient in PAR1^-/- (B6.129S4-[…]^tm1Ajc/J) were also obtained from Jackson and backcrossed to C57BL6/J for 10 generations such that C57 mice served as wild type controls in each experiment. Spleens were homogenized in RPMI-1640, red blood cells lysed with ammonium chloride buffer, and splenocytes cultured in tissue culture treated 96 well plates at a density of 7.5×10^5 cells/mL. All experiments were performed in serum free X-Vivo media (Lonza, Mapleton, Ill.) containing 2 mM Glutamax, 1 mM sodium pyruvate, 50 U/mL penicillin-streptomycin, 10 mM HEPES, 50 μM 2-β-mercaptoethanol, and 10 μM non-essential amino acids (Invitrogen). Jurkat T cells were maintained in log-phase growth in the same defined media. The cells were maintained at 37° C. in 95% air and 5% CO2. […] Cells were analyzed by flow cytometry using a FACSCalibur flow cytometer (BD Biosciences, Mountain View, Calif.). […] FlowJo software (Ashland, Oreg.) was used to quantify different cell populations in flow cytometry experiments. […]

murine splenocytes [4] = test: Splenocyte proliferation, CFSE labeling by flow cytometry; assay type: cell-based

| Molecule | cell death induced by staurosporine [1] | cell death induced by staurosporine [2] | cell death / cell survival (murine splenocytes [3]) | percent of divided cells (murine splenocytes [4]; 10 μg/mL, 24 hours post-stimulation) | proliferation (murine splenocytes [4]; lower concentrations, or 72 hours post-exposure) |
| --- | --- | --- | --- | --- | --- |
| CN[C@@H]1C[C@H]2O[C@@](C)([C@@H]1OC)n1c3ccccc3c3c4c(c5c6ccccc6n2c5c31)C(=O)NC4 [staurosporine] | shown to promote death of the Oli Neu oligodendrocyte cell line | induced a considerable increase in cell death | – | – | – |
| KLK1 polypeptides: recombinant kallikrein family member KLK1, produced in an identical fashion to KLK6 | – | – | did not significantly impact cell survival | significant increase in the percent of divided cells | Significant differences in proliferation were not seen |
